{"source": "patent US20070128217A1", "about": "(priority 2003, published 2007)", "key": {"[1]": {"test_system": "antibodies in sera from SARS patients (sera 1a, 1b, 2, 6, 37, 62, London, SARS-yellow, SARS-green)", "format": "binding, human", "design": "Binding of serum 6 to linear peptides of protein X1 of SARS-CoV Urbani / Binding of serum 37 to linear peptides of protein X1 of SARS-CoV Urbani / Binding of serum 6 to looped/cyclic peptide (PEPSCAN-ELISA) / Binding of serum 37 to looped/cyclic peptide (PEPSCAN-ELISA) / Binding of serum 37 to looped/cyclic peptides of protein X1 of SARS-CoV Urbani / Binding of serum 6 to linear peptides of protein X2 / Binding of serum 37 to linear peptides of protein X2 / Binding of serum 37 to looped/cyclic peptides of protein X2 of SARS-CoV Urbani / Binding of serum 6 to linear peptides of protein M of SARS-CoV Urbani / Binding of serum 37 to linear peptides of protein M of SARS-CoV Urbani / Binding of serum 6 to looped/cyclic peptides of protein M of SARS-CoV Urbani / Binding of serum 37 to looped/cyclic peptides of protein M of SARS-CoV Urbani / Binding of serum 6 to linear peptides of protein X3 of SARS-CoV Urbani / Binding of serum 37 to linear peptides of protein X3 of SARS-CoV Urbani / Binding of serum 37 to looped/cyclic peptides of protein X3 of SARS-CoV Urbani / Binding of serum 6 to linear peptides of protein X4 of SARS-CoV Urbani / Binding of serum 37 to linear peptides of protein X4 of SARS-CoV Urbani / Binding of serum 37 to looped/cyclic peptides of protein X4 of SARS-CoV Urbani / Binding of serum 6 to linear peptides of protein X5 of SARS-CoV Urbani / Binding of serum 37 to linear peptides of protein X5 of SARS-CoV Urbani / Binding of serum 37 to looped/cyclic peptides of protein X5 of SARS-CoV Urbani / Binding of serum 6 to linear peptides of protein N of SARS-CoV Urbani / Binding of serum 37 to linear peptides of protein N of SARS-CoV Urbani / Binding of serum 6 to linear peptide (PEPSCAN-ELISA) / Binding of serum 1a to looped/cyclic peptides of protein N of SARS-CoV Urbani / Binding of serum 1b to looped/cyclic peptides of protein N of SARS-CoV Urbani / Binding of serum 2 to looped/cyclic peptides of protein N of SARS-CoV Urbani / Binding of serum 6 to looped/cyclic peptides of protein N of SARS-CoV Urbani / Binding of serum 37 to looped/cyclic peptides of protein N of SARS-CoV Urbani / Binding of serum 62 to looped/cyclic peptides of protein N of SARS-CoV Urbani / Binding of serum London to looped/cyclic peptides of protein N of SARS-CoV Urbani / Binding of serum SARS-green to looped/cyclic peptides of protein N of SARS-CoV Urbani: unit not given here"}, "[2]": {"test_system": "control sera (pooled serum of ten healthy LUMC hospital workers; commercial negative donor pooled serum from the Dutch bloodbank)", "format": "binding, human", "design": "Binding of Control serum LUMC to linear peptides / Binding of Control serum Blood-bank to linear peptides / Binding of Control serum LUMC to looped peptides / Binding of Control Serum Blood-Bank to Looped peptides / Binding of Control serum LUMC to linear peptides of the protein M of SARS-CoV Urbani / Binding of Control serum Blood-bank to linear peptides of the protein M of SARS-CoV Urbani / Binding of Control serum LUMC to looped peptides of the protein M of SARS-CoV Urbani / Binding of Control Serum Blood-Bank to Looped peptides of the protein M of SARS-CoV Urbani: unit not given here"}, "[3]": {"test_system": "rabbit serum obtained by immunizing a rabbit with the SARS-CoV strain Frankfurt 1", "format": "binding", "design": "Binding of a rabbit serum to linear peptides / Binding of a rabbit serum to looped peptides / Rabbit serum linear peptides / Rabbit serum looped peptides / Binding of a rabbit serum to linear peptides of protein N of SARS-CoV Urbani (Rabbit serum linear peptides) / Binding of a rabbit serum to looped/cyclic peptides of protein N of SARS-CoV Urbani (Rabbit serum looped peptides): unit not given here"}}, "data": [{"sequence": "TAFQHQNSKKTTKLV", "values": [{"measurement": "Binding of serum 1a to linear peptides of protein X2", "setting": "[1]", "value": 0.7}, {"measurement": "Binding of serum 1a to looped/cyclic peptides of protein X2 of SARS-CoV Urbani", "setting": "[1]", "value": 0.3}, {"measurement": "Binding of serum 1b to linear peptides of protein X2", "setting": "[1]", "value": 0.5}, {"measurement": "Binding of serum 1b to looped/cyclic peptides of protein X2 of SARS-CoV Urbani", "setting": "[1]", "value": 0.3}, {"measurement": "Binding of serum 2 to linear peptides of protein X2", "setting": "[1]", "value": 0.5}, {"measurement": "Binding of serum 2 to looped/cyclic peptides of protein X2 of SARS-CoV Urbani", "setting": "[1]", "value": 0.2}, {"measurement": "Binding of serum 6 to linear peptides of protein X2", "setting": "[1]", "value": 0.7}, {"measurement": "Binding of serum 6 to looped/cyclic peptides of protein X2 of SARS-CoV Urbani", "setting": "[1]", "value": 0.3}, {"measurement": "Binding of serum 37 to linear peptides of protein X2", "setting": "[1]", "value": 0.7}, {"measurement": "Binding of serum 37 to looped/cyclic peptides of protein X2 of SARS-CoV Urbani", "setting": "[1]", "value": 0.2}, {"measurement": "Binding of serum 62 to linear peptides of protein X2", "setting": "[1]", "value": 0.4}, {"measurement": "Binding of serum 62 to looped/cyclic peptides of protein X2 of SARS-CoV Urbani", "setting": "[1]", "value": 0.4}, {"measurement": "Binding of serum London to linear peptides of protein X2", "setting": "[1]", "value": 0.4}, {"measurement": "Binding of serum London to looped/cyclic peptides of protein X2 of SARS-CoV Urbani", "setting": "[1]", "value": 0.2}, {"measurement": "Binding of serum SARS-green to linear peptides of protein X2", "setting": "[1]", "value": 0.1}, {"measurement": "Binding of serum SARS-green to looped/cyclic peptides of protein X2 of SARS-CoV Urbani", "setting": "[1]", "value": 0.1}, {"measurement": "Binding of serum SARS-yellow to linear peptides of protein X2", "setting": "[1]", "value": 0.8}, {"measurement": "Binding of serum SARS-yellow to looped/cyclic peptides of protein X2 of SARS-CoV Urbani", "setting": "[1]", "value": 0.3}, {"measurement": "Binding of Control Serum Blood-Bank to Looped peptides", "setting": "[2]", "value": 0.4}, {"measurement": "Binding of Control serum Blood-bank to linear peptides", "setting": "[2]", "value": 0.6}, {"measurement": "Binding of Control serum LUMC to linear peptides", "setting": "[2]", "value": 0.9}, {"measurement": "Binding of Control serum LUMC to looped peptides", "setting": "[2]", "value": 0.4}, {"measurement": "Recognition of the peptide by the rabbit serum", "setting": "[3]", "value": "recognized"}]}, {"sequence": "PLFLIVAALVFLILC", "values": [{"measurement": "Binding of serum 1a to linear peptides of protein X4 of SARS-CoV Urbani", "setting": "[1]", "value": 0.5}, {"measurement": "Binding of serum 1a to looped/cyclic peptides of protein X4 of SARS-CoV Urbani", "setting": "[1]", "value": 0.5}, {"measurement": "Binding of serum 1b to linear peptides of protein X4 of SARS-CoV Urbani", "setting": "[1]", "value": 0.4}, {"measurement": "Binding of serum 1b to looped/cyclic peptides of protein X4 of SARS-CoV Urbani", "setting": "[1]", "value": 0.1}, {"measurement": "Binding of serum 2 to linear peptides of protein X4 of SARS-CoV Urbani", "setting": "[1]", "value": 0.3}, {"measurement": "Binding of serum 2 to looped/cyclic peptides of protein X4 of SARS-CoV Urbani", "setting": "[1]", "value": 0.2}, {"measurement": "Binding of serum 6 to linear peptides of protein X4 of SARS-CoV Urbani", "setting": "[1]", "value": 0.3}, {"measurement": "Binding of serum 6 to looped/cyclic peptides of protein X4 of SARS-CoV Urbani", "setting": "[1]", "value": 0.5}, {"measurement": "Binding of serum 37 to linear peptides of protein X4 of SARS-CoV Urbani", "setting": "[1]", "value": 0.6}, {"measurement": "Binding of serum 37 to looped/cyclic peptides of protein X4 of SARS-CoV Urbani", "setting": "[1]", "value": 0.0}, {"measurement": "Binding of serum 62 to linear peptides of protein X4 of SARS-CoV Urbani", "setting": "[1]", "value": 0.7}, {"measurement": "Binding of serum 62 to looped/cyclic peptides of protein X4 of SARS-CoV Urbani", "setting": "[1]", "value": 0.1}, {"measurement": "Binding of serum London to linear peptides of protein X4 of SARS-CoV Urbani", "setting": "[1]", "value": 0.6}, {"measurement": "Binding of serum London to looped/cyclic peptides of protein X4 of SARS-CoV Urbani", "setting": "[1]", "value": 0.1}, {"measurement": "Binding of serum SARS-green to linear peptides of protein X4 of SARS-CoV Urbani", "setting": "[1]", "value": 0.5}, {"measurement": "Binding of serum SARS-green to looped/cyclic peptides of protein X4 of SARS-CoV Urbani", "setting": "[1]", "value": 0.2}, {"measurement": "Binding of serum SARS-yellow to linear peptides of protein X4 of SARS-CoV Urbani", "setting": "[1]", "value": 0.4}, {"measurement": "Binding of serum SARS-yellow to looped/cyclic peptides of protein X4 of SARS-CoV Urbani", "setting": "[1]", "value": 0.1}, {"measurement": "Binding of Control Serum Blood-Bank to Looped peptides", "setting": "[2]", "value": 0.5}, {"measurement": "Binding of Control serum Blood-bank to linear peptides", "setting": "[2]", "value": 0.4}, {"measurement": "Binding of Control serum LUMC to linear peptides", "setting": "[2]", "value": 0.4}, {"measurement": "Binding of Control serum LUMC to looped peptides", "setting": "[2]", "value": 0.5}, {"measurement": "Rabbit serum linear peptides", "setting": "[3]", "value": 0.4}, {"measurement": "Rabbit serum looped peptides", "setting": "[3]", "value": 0.0}]}, {"sequence": "HLVDFQVTIAEILII", "values": [{"measurement": "Binding of serum 1a to linear peptides of protein X3 of SARS-CoV Urbani", "setting": "[1]", "value": 0.8}, {"measurement": "Binding of serum 1a to looped/cyclic peptides of protein X3 of SARS-CoV Urbani", "setting": "[1]", "value": 0.7}, {"measurement": "Binding of serum 1b to linear peptides of protein X3 of SARS-CoV Urbani", "setting": "[1]", "value": 0.6}, {"measurement": "Binding of serum 1b to looped/cyclic peptides of protein X3 of SARS-CoV Urbani", "setting": "[1]", "value": 0.4}, {"measurement": "Binding of serum 2 to linear peptides of protein X3 of SARS-CoV Urbani", "setting": "[1]", "value": 0.7}, {"measurement": "Binding of serum 2 to looped/cyclic peptides of protein X3 of SARS-CoV Urbani", "setting": "[1]", "value": 0.6}, {"measurement": "Binding of serum 6 to linear peptides of protein X3 of SARS-CoV Urbani", "setting": "[1]", "value": 0.5}, {"measurement": "Binding of serum 6 to looped/cyclic peptides of protein X3 of SARS-CoV Urbani", "setting": "[1]", "value": 0.4}, {"measurement": "Binding of serum 37 to linear peptides of protein X3 of SARS-CoV Urbani", "setting": "[1]", "value": 0.7}, {"measurement": "Binding of serum 37 to looped/cyclic peptides of protein X3 of SARS-CoV Urbani", "setting": "[1]", "value": 0.6}, {"measurement": "Binding of serum 62 to linear peptides of protein X3 of SARS-CoV Urbani", "setting": "[1]", "value": 0.6}, {"measurement": "Binding of serum 62 to looped/cyclic peptides of protein X3 of SARS-CoV Urbani", "setting": "[1]", "value": 0.7}, {"measurement": "Binding of serum London to linear peptides of protein X3 of SARS-CoV Urbani", "setting": "[1]", "value": 0.6}, {"measurement": "Binding of serum London to looped/cyclic peptides of protein X3 of SARS-CoV Urbani", "setting": "[1]", "value": 0.2}, {"measurement": "Binding of serum SARS-green to linear peptides of protein X3 of SARS-CoV Urbani", "setting": "[1]", "value": 0.4}, {"measurement": "Binding of serum SARS-green to looped/cyclic peptides of protein X3 of SARS-CoV Urbani", "setting": "[1]", "value": 0.2}, {"measurement": "Binding of serum SARS-yellow to linear peptides of protein X3 of SARS-CoV Urbani", "setting": "[1]", "value": 0.5}, {"measurement": "Binding of serum SARS-yellow to looped/cyclic peptides of protein X3 of SARS-CoV Urbani", "setting": "[1]", "value": 0.7}, {"measurement": "Binding of Control Serum Blood-Bank to Looped peptides of the protein X3 of SARS-CoV Urbani", "setting": "[2]", "value": 0.9}, {"measurement": "Binding of Control serum Blood-bank to linear peptides of the protein X3 of SARS-CoV Urbani", "setting": "[2]", "value": 0.8}, {"measurement": "Binding of Control serum LUMC to linear peptides of the protein X3 of SARS-CoV Urbani", "setting": "[2]", "value": 0.7}, {"measurement": "Binding of Control serum LUMC to looped peptides of the protein X3 of SARS-CoV Urbani", "setting": "[2]", "value": 0.7}, {"measurement": "Rabbit serum linear peptides", "setting": "[3]", "value": 0.3}, {"measurement": "Rabbit serum looped peptides", "setting": "[3]", "value": 0.3}]}]}
